Laboratory results published in patent US20230210755A1, “FUNCTIONAL SKIN COATING POLYMER” (The Johns Hopkins University, priority 2020, published 2023).

Assay: Extractables and leachables from UV absorber containing films in synthetic perspiration, quantitative 1H NMR
Assay type: physicochemical
Settings: control: UV filter post-added to extract of Comparative 1 film just prior to concentration (recovery)
Method: The films described hereinabove, including the comparative example were further characterized for their ability to retain their UV-filtering components under pseudo-physiological conditions with the potential to extract unbound or otherwise mobile UV-filtering compounds. In general, films were immersed in a gently agitated solution of artificial perspiration for 24 hours at room temperature. Following removal of the films, a small amount of dimethylsulfone was added to each extract solution before it was concentrated to dryness under vacuum (65° C./0 torr). The resulting residues were then taken up in DMSO-d6 and analyzed by quantitative ^1H NMR against the added internal standard (dimethylsulfone). The method was validated by control samples, which were prepared by spiking the extracts derived from silicone films made without UV-filtering compounds, with known amounts of UV-filtering compounds immediately prior to concentration under vacuum.
20-mL screw cap borosilicate vials were charged with 10 g of synthetic perspiration (purchased from Reagents). […] Samples were then analyzed using a Bruker 400 MHz NMR spectrometer. Quantitative determination of the extracted UV filter(s) was then made by comparing the relative integration of distinct resonances derived from the UV filtering compound(s) against that of the internal standard (dimethylsulfone).

UV filter found by 1H NMR: 98%
SMILES: CCCCC(CC)COC(=O)C=Cc1ccc(OC)cc1 (stereo not shown) [Octinoxate]
